# According to patent US8778882B2, “Agent for strengthening calcium containing tissue and use thereof” (Hayashibara Co., Ltd., priority 2002, dated 2014):
# Assays:
# [1] = system: mouse pre-osteoblastic cell MC3T3-E1; test: Alkaline phosphatase activity in mouse pre-osteoblastic cells; type: cell-based
# Protocol: To increase number of osteoblastic cells having calcium-deposition activity is important for increasing bone mass. […] The activity is at low level in pre-osteoblastic cells and at high level in osteoblastic cells differentiated form the pre-osteoblastic cells. […] Since final ethanol concentration in the medium is 0.2% (v/v), α-MEM medium containing 0.2% (v/v) ethanol was prepared as a negative control. The cells were inoculated for eight days as changing the medium therewith to fresh medium with or without each sample per three days. Alkaline phosphatase activity was measured using “Alkaline Phospha B-Test Wako” (commercialized by Wako Pure Chemical Industries, Osaka, Japan) according with Kajii et al (Archives of Oral Biology, Vol. 44, pp. 233-241, (1999)). Briefly, to the above described mouse pre-osteoblastic cells washed with 1 ml of 0.25 M sucrose solution three times after removing the medium were added 0.45 ml of 50 mM carbonate salt buffer (pH9.8) containing 1 mM magnesium chloride and 50 mM sucrose and 0.05 ml of 3.4 mM disodium p-nitrophenyl phosphate in due course. The mixture was incubated at 25° C. for five minutes and admixed with 1.5 ml of 0.6N sodium hydroxide as a reaction terminator. Absorbance 405 nm of p-nitrophenol generated by alkaline phosphatase in the resulting mixture was measured, and the obtained values were used as values as alkaline phosphatase activity. […] The experiment was performed by the method according to Experiment 1 except that culture day in the medium containing each sample was three, six or nine, and concentration of each sample was 5, 10 or 20 μM. […] As a negative control, mediums containing ethanol in the above concentration were prepared for calculating relative activity to the activity of each control.
# [2] = system: mouse pre-osteoblastic cell MC3T3-E1; test: Calcium deposition amount by Calcium C Test Wako; type: cell-based
# Text: Other flavonoid compounds than kaempferol or hesperetin were investigated where they have the same effect or not. Flavone (commercialized by Kanto Kagaku, Tokyo, Japan), apigenin (commercialized by Funakoshi, Co., Ltd., Tokyo, Japan), flavonol (commercialized by Tokyo Kasei Kogyo, Co., Ltd., Tokyo, Japan), quercetin (commercialized by Kanto Kagaku, Tokyo, Japan), kaempferol (commercialized by Funakoshi, Co., Ltd., Tokyo, Japan), rutin (commercialized by Kanto Kagaku, Tokyo, Japan), flavanone (commercialized by Kanto Kagaku, Tokyo, Japan), naringenin (commercialized by Ardrich Corporation), hesperetin (commercialized by Funakoshi, Co., Ltd., Tokyo, Japan), hesperidin (commercialized by Kanto Kagaku, Tokyo, Japan), chalcone (commercialized by Merk Corporation), fuloretin (commercialized by Sigma Corporation), catechin (commercialized by Sigma Corporation), ipriflavone (commercialized by Daito Corporation, Toyama, Japan), taxifolin (commercialized by Funakoshi, Co., Ltd., Tokyo, Japan), sulfuretin (commercialized by Funakoshi, Co., Ltd.; Tokyo, Japan), or cyanidin (commercialized by Funakoshi, Co., Ltd., Tokyo, Japan) was selected as test samples. Alkaline phosphatase activity was measured by the method of Experiment 1. Calcium deposition was measured by usual method using “Calcium C Test Wako” (commercialized by Wako Pure Chemical Industries, Osaka, Japan), briefly, cultured cells were washed with 1 ml of Dulbecco phosphate buffer saline three times after removing the medium. To the resultant was added 0.5 ml of 2N hydrochloric acid to resolve deposited calcium. To 5 μl of the resultant solution were added 0.5 ml of 0.88M monoethanolamine buffer (pH11) and 0.05 ml of 0.63 mM o-cresolphthalein complexone solution (binding to calcium ion to form chelate complex) containing 69 mM 8-quinolinol and mixed. Calcium amount per one hole of the plate was calculated by measuring absorbance 570 nm of the resultants and standardizing with a standard calcium solution. The judgement of alkaline phosphatase activity or calcium deposition amount of each sample was to calculate the relative activity or the relative calcium deposition amount to the negative control (only medium containing 0.2% (v/v) ethanol) and to compare each other.
# The enhancement of calcium deposition between kaempferol and ipripfavone were compared. Test samples and their adding manner were same as Experiment 4. Calcium deposition amount was measured by usual method using “Calcium C Test Wako” (commercialized by Wako Pure Chemical Industries, Osaka, Japan); briefly, cultured cells were washed with 1 ml of Dulbecco phosphate buffer saline three times after removing the medium. To the resultant was added 0.5 ml of 2N hydrochloric acid to resolve deposited calcium. To 5 μl of the resolving solution were added 0.5 ml of 0.88M monoethanolamine buffer (pH11) and 0.05 ml of 0.63 mM o-cresolphthalein complexone solution (binding to calcium ion to form chelate complex) containing 69 mM 8-quinolinol and mixed, Calcium amount per one hole of the plate was calculated by measuring absorbance 570 nm of the resultants and standardizing with a standard calcium solution.
# Kaempferol or hesperetin in combination with ipriflavone, or a kind of isoflavones, was investigated whether to enhance calcium deposition or not. Methods for preparing samples and culturing the cells were the same method described in Experiment 1 except culturing the cells for five days, Method for measuring calcium was the same method described in Experiment 3 and 5. Final ethanol concentration of the medium containing each sample was adjusted as same concentration.
# Rat Femur and Tibia = test: Enhancing calcium deposition in rat femur and tibia; type: in vivo; conditions: rats fed sample in high sucrose feeding stuff for eight weeks
# Protocol: The experiment was performed using six three-weeks-aged female Wister rats per one group. The rats were fed with high sucrose feeding stuff containing ingredients listed Table 11 (In the Table, each value means “weight %”.) and one part by weight of each test sample; hesperetin (commercialized by Funakoshi, Co., Ltd., Tokyo, Japan), quercetin (commercialized by Tokyo Kasei Kogyo, Co., Ltd., Tokyo, Japan), α-glycosyl hesperidin (product name “αG HESPERIDINE”, commercialized by Hayashibara Shoji Inc., Okayama, Japan), α-glycosyl rutin (product name “αG RUTIN P”, commercialized by Hayashibara Shoji Inc., Okayama, Japan), or ipriflavone (commercialized by Daito Corporation, Toyama, Japan) (positive control). As a negative control, rats fed with feedstuff containing one part by weight of sucrose replacing test sample were prepared. The rats were allowed to freely take water. The rats were killed after eight weeks, and then, their femurs and tibias were excised. Each femur or tibia dried at 100° C. for about six hours was measured by electric even balance for high precision analysis (product name “HA180M/12QM”, commercialized by A & D Co, Ltd., Tokyo, Japan), and then, each bone was placed into a crucible and burned in an incinerator at 950° C. for six hours. The cinerary resultant was resolved in hydrochloric solution and provided for measuring calcium amount by atomic absorption photometer. Calcium amount per one dried bone was calculated and compared each other.
structure (smiles),measurement,setting,value
COc1ccc([C@@H]2CC(=O)c3c(O)cc(O)cc3O2)cc1O [Hesperetin],enhancement of alkaline phosphatase activity compared with ipriflavone (FIG. 1),"[1]; MC3T3-E1, 5, 10 or 20 μM, day three, six or nine",equally enhances
same,Relative Alkaline Phosphatase Activity (%),"[1]; flavonoid comparison, method of Experiment 1, relative to 0.2% (v/v) ethanol negative control",116%
same,enhancing calcium deposition in combination with ipriflavone versus single use (FIGS. 3 and 4),"[2]; 5, 10 or 20 μM each, five days culture",a synergy effect was confirmed
same,Relative Calcium Deposition Amount (%),"[2]; flavonoid comparison, Calcium C Test Wako, relative to 0.2% (v/v) ethanol negative control",289%
same,Calcium Content Per One Dried Bone,Rat Femur and Tibia; Femur,125.1 mg
same,Dried Bone Mass,Rat Femur and Tibia; Femur,0.463 g
same,Calcium Content Per One Dried Bone,Rat Femur and Tibia; Tibia,109.0 mg
same,Dried Bone Mass,Rat Femur and Tibia; Tibia,0.357 g
